Laboratory results: publication PMC4104029, “Mechanism of Action of Compound-13: An α1-Selective Small Molecule Activator of AMPK” (Chemistry & Biology, 2014)

What was measured:
[1] = test system: AMPK signaling in mouse primary hepatocytes; assay: AMPK signaling in primary hepatocytes, western blotting; type: cell-based
Experimental: Figure 4 The C2 Prodrug, C13, Potently Activates AMPK in Mouse Primary Hepatocytes (A) Isolated mouse hepatocytes were incubated with vehicle or the indicated concentrations of C13 for 1 hr. AICAR (0.5 mM) was included as a positive control. Cell lysates were analyzed using western blotting with the indicated antibodies. (B) AMPKα1 or AMPKα2 complexes were immunoprecipitated from hepatocyte extracts prepared as described in (A) and assayed for kinase activity using 0.2 mM AMARA and 0.1 mM ATP. Results are expressed as the mean Pi incorporated in picomoles per minute-milligram ± SD. (C) Hepatocytes were stimulated with 30 μM C13 for the indicated times prior to harvesting, with AICAR (0.5 mM, 1 hr) as positive control. Lysates were analyzed using western blotting with the indicated antibodies. (D) Mouse hepatocytes were treated with the indicated compounds for 1 hr, and adenine nucleotide ratios were determined using capillary electrophoresis of perchloric acid extracts. (E) Mouse hepatocytes were preincubated with 30 μM STO-609 for 30 min prior to stimulation with 30 μM C13 for 1 hr or with 1 μM ionomycin for 30 min. Lysates were analyzed using western blotting with the indicated antibodies. (F) Wild-type (LKB1^+/+) or LKB1-null (LKB1^−/−) mouse embryonic fibroblasts were incubated with the indicated concentrations of C13 for 1 hr. AICAR (2 mM) was included as a positive control. Lysates were analyzed using western blotting with the indicated antibodies. Results are representative of three independent experiments. […]
Isolation of primary hepatocytes. Hepatocytes were isolated from fasted mice by collagenase digestion (Berry and Friend, 1969). Cells were seeded in M199 containing 100 U/ml penicillin G, 100 µg/ml streptomycin, 0.1 % (w/v) BSA, 10 % (v/v) FBS, 10 nM insulin, 200 nM triiodothyronine and 100 nM dexamethasone. Post attachment (3-4 h), cells were cultured overnight in M199 supplemented with antibiotics and 100 nM dexamethasone and used for experiments the following morning.
Western blotting. Cells were stimulated as indicated, rinsed with ice-cold PBS and lysed with 50 mM tris pH 7.5, 1 mM EDTA, 1 mM EGTA, 0.27 M sucrose, 1 % (w/v) Triton X-100, 20 mM glycerol-2-phosphate, 50 mM NaF, 5 mM Na4P2O7, 1 mM Na3VO4, 1 mM DTT, 0.5 mM PMSF, 1 mM benzamidine and 1 µM microcystin-LR. Lysates were clarified at 3000 g for 5 min at 4 °C and normalised using Bradford reagent and BSA as standard. Lysates (20 µg) were denatured in Laemlli buffer, separated on 7.5 % tris-glycine gels and transferred to PVDF in Towbin buffer. Membranes were blocked in 5 % (w/v) milk for 1 h at RT and incubated overnight in the indicated primary antibodies at 4 °C. Membranes were developed using HRP-conjugated antibodies and ECL reagent.
Nucleotide measurements. Cultured hepatocytes were incubated with the indicated compounds and washed with ice-cold 0.9 % (w/v) saline before extraction in 5 % perchloric acid. Precipitated material was removed by centrifugation (13,000 RPM, 3 min) and supernatant neutralised with 1:1 trioctylamine:Freon-113 (Khym, 1975). Nucleotides were separated and quantified by capillary electrophoresis using a Beckman P/ACE instrument as previously described (Hawley, et al., 2010).

[2] = test system: WT and β2-KO hepatocytes; assay: AMPK signaling, western blotting; type: cell-based, mouse; settings: 1 hr; A769662 100 μM
Experimental: (§1) Figure 7 C13 Activates Both β1 and β2 Complexes in Mouse Hepatocytes (A) Hepatocytes from WT, AMPKβ1^−/−, and AMPKβ2^−/− mice were incubated with the indicated concentrations of C13 for 1 hr. A769662 (100 μM) was included as a positive control. Lysates were analyzed using western blotting with the indicated antibodies. (B) Mouse hepatocytes from the indicated genotypes were treated with the indicated concentrations of C13 and labeled with [^3H]acetate for 4 hr. Lipogenesis was estimated from the incorporation of acetate into total lipids. Results are expressed as the mean acetate incorporated in micromoles per gram-hour ± SD.

[3] = test system: β1-KO hepatocytes; assay: AMPK signaling, western blotting; type: cell-based, mouse; settings: 1 hr; A769662 100 μM
Experimental: as §1

CC(C)C(=O)OCOP(=O)(OCOC(=O)C(C)C)c1ccc(C2=NOC(=O)C2)o1 [Compound C13]
time course of Thr172 phosphorylation ([1]; 30 μM): continually increased up to 2 hr | time to maximal phosphorylation of downstream targets (ACC, Raptor, and ULK1) ([1]; 30 μM): 45 to 60 min | insulin-stimulated mTORC1 activation (phosphorylation of p70S6K and 4EBP1) ([1]; 30 µM, 10 mU/ml insulin, 60 min): suppressed | concentration above which Raptor and ULK1 were significantly phosphorylated ([1]; 1 hr): 1 to 3 µM | concentration above which phosphorylation of ACC was evident ([1]; 1 hr): 0.03 to 0.1 µM | concentration at which ACC phosphorylation appeared saturated ([1]; 1 hr): 1 to 3 µM | concentration at which Thr389 p70S6K1 phosphorylation was suppressed ([1]; 1 hr): above 1 μM | lowest concentration with elevation of Thr172 phosphorylation ([1]; 1 hr): 10 µM | phosphorylation of Thr172 and ACC, as well as Raptor [2]: robustly stimulated | stimulation of AMPK (Thr172 phosphorylation) [3]: modestly stimulated
